Assay results taken from patent publication US11618746B2, “Inhibitors of APOL1 and methods of using same” (Vertex Pharmaceuticals Incorporated, priority 2018, dated 2023).

These molecules were tested against T1, APOL1 G1 Protein (Homo sapiens, UniProt O14791, I384M/S342G) (assay: Trypanosoma brucei brucei lysis assay using APOL1 recombinant protein (AlamarBlue viability readout)). Settings: Trypanosoma brucei brucei (Lister 427 VSG 221 bloodstream form) lysis by 0.05 μg/mL recombinant APOL1 G1, 16 hrs.
T1 sequence (O14791 28-398 S342G/I384M): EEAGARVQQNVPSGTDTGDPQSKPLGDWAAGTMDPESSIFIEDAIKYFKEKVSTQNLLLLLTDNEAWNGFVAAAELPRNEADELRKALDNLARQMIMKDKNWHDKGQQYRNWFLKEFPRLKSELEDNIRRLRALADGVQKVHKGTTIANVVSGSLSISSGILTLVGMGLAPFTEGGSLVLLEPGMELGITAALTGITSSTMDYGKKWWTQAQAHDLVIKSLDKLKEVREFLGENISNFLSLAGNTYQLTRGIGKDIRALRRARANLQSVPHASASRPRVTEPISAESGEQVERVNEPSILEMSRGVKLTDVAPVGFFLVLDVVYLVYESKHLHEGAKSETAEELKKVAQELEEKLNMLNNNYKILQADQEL
Format: cell-based
Excerpt: Trypanosoma brucei brucei is a blood stream parasite to which human, gorillas and baboon are immune due to the presence of the APOL1 protein in their HDL particles. The protein is uptaken by the parasite via the TbHpHb receptor located in its flagellar pocket and is bonded by the Hpr protein contained in the HDL particles which triggers the receptor endocytosis by the parasite.
Following endocytosis, the formed vesicle containing the HDL particle matures from early to late endosome, and subsequently to lysosome. The concomitant pH change in the lumen of the vesicle triggers the insertion of the APOL1 protein into the membrane of the late endosome/lysosome and hereby triggers lysosomal membrane premeabilisation and as a further downstream event, trypanosome lysis. Trypanosoma brucei brucei is sensitive to lysis by all three APOL1 variants (G0, G1, and G2).
The Trypanosoma brucei brucei lysis assay is a lysis assay of the parasite using recombinant APOL1 protein variant followed by a fluorescent detection method of viability by the addition of AlamarBlue reagent to the assay well, a general metabolic redox indicator (AlamarBlue assay).
Briefly, the AlamarBlue active compound, the resazurin, a blue, water soluble, non-toxic and cell permeable molecule, which can be followed by absorbance, is reduced by various metabolic pathways into resorufin, a red compound which can be followed by either absorbance or fluorescence. The assay allows the calculation of the percent viability (percent of living Trypanosomes remaining in each well) at the end of a lysis relative to the untreated condition by interpolation of fluorescent values (FLU) on a standard curve with a known amount of seeded trypanosome/well.
Trypanosoma brucei brucei (ATCC, Cat. No. PRA-382) • Lister 427 VSG 221 bloodstream form.
Thaw/Expansion Media (ATCC Medium 2834 Modified HMI-9 Medium)
Equipment • E1-Clip Tip pipette 12 channel adjustable 2-125 μL, Cat. No. 4672070BT • ThermoFisher MultiDrop 384, Cat. No. 5840300 • Multidrop • Agilent Bravo, Cat. No. G5409A • Bravo • SpectraMax M5
Trypanosoma brucei brucei Culture
Step 2, Day 4 • Centrifuge at 800×g for 5 minutes at room temperature. • Resuspend in 1 mL media. • Make a 1:25 fold dilution (10 μL/240 μL media). • Count on a hemocytometer (after adding parasites). • Let sit for 1-2 minutes for the parasites to settle. • Count should be approximately 100 viable motile parasites/16 grid or approximately 25×10^6 parasites/flask. • Passage the parasites by adding 1×10^6 parasites/T75 flask in 20 mL media. • Passage the parasites by adding 2.33×10^6 parasites/T175 flask in 46.6 mL media. • For every T75 flask should make enough for approximately 1.5×384 well assay plates. • For every T175 flask should make enough for approximately 3.8×384 well assay plates.
Step 3. Day 6 • Centrifuge at 800×g for 5 minutes. • Resuspend in 3 mL assay media (No phenol red, no FBS) per 75 starting flask. • Resuspend in 7 mL assay media (No phenol red, no FBS) per 175 flask • Make a 1:25 fold dilution. • Count by hemocytometer. • Every T75 flask set up should have approximately 75×10^6 parasites/flask (verify doubling time=8.7 hrs 1 hr). • Every T175 flask set up should have approximately 175×10^6 parasites/flask (verify doubling time=8.7 hrs±1 hr). • Require 46×10^6 parasites per 384 well plate (at 120,000 parasites per well).
Step 2, Day 2 • Centrifuge at 800×g for 5 minutes at room temperature. • Resuspend in 1 mL media. • Make a 1:25 fold dilution (10 L/240 μL media). • Let sit for 1-2 minutes for the parasites to settle. • Count should be approximately 100 viable motile parasites/16 grid or approximately 8×10^6 parasites per flask. • Passage the parasites by adding 1.25×10^6 parasites per T75 flask in 20 mL media. • For every T75 flask set up should have approximately 1.5×384 well assay plates. • For every T175 flask setup should have approximately 3.8×384 well assay plates. […]
With `O=C(CCc1c(-c2ccc(C(F)(F)F)cc2)[nH]c2ccccc12)N[C@@H]1C(=O)NC[C@H]1O` [Compound 123] the IC50 was under 250 nM.
`Cc1ccc(-c2[nH]c3ccccc3c2CCC(=O)N[C@@H]2C(=O)NC[C@H]2O)c(F)c1` [Compound 122] showed an IC50 of under 250 nM.
`O=C(CCc1c(-c2ccc(F)cc2)[nH]c2c(OC(F)F)cc(F)cc12)N[C@@H]1C(=O)NC[C@H]1O` [Compound 107] gave an IC50 of 250 to 1000 nM.
`O=C(CCc1c(-c2ccc(Cl)cc2)[nH]c2ccccc12)N[C@@H]1C(=O)NC[C@H]1O` [Compound 128, 3-[2-(4-chlorophenyl)-1H-indol-3-yl]-N-[(3S,4R)-4-hydroxy-2-oxo-pyrrolidin-3-yl]propanamide] showed an IC50 of under 250 nM.
Work on `Cc1cc(-c2[nH]c3ccccc3c2CCC(=O)N[C@@H]2C(=O)NC[C@H]2O)ccc1F` [Compound 125] yielded an IC50 of under 250 nM.
In the case of `N#Cc1ccc(-c2[nH]c3ccccc3c2CCC(=O)N[C@@H]2C(=O)NC[C@H]2O)cc1` [Compound 116, 3-[2-(4-cyanophenyl)-1H-indol-3-yl]-N-[(3S,4R)-4-hydroxy-2-oxo-pyrrolidin-3-yl]propanamide], the IC50 is reported as under 250 nM.
With `O=C(CCc1c(-c2ccc(F)cc2)[nH]c2c(F)c(F)ccc12)N[C@@H]1C(=O)NC[C@H]1O` [Compound 58] the IC50 was under 250 nM.
`O=C(CCc1c(-c2ccccc2)[nH]c2c(C(F)(F)F)cccc12)N[C@@H]1C(=O)NC[C@H]1O` [Compound 112, N-[(3S,4R)-4-hydroxy-2-oxo-pyrrolidin-3-yl]-3-[2-phenyl-7-(trifluoromethyl)-1H-indol-3-yl]propanamide] gave an IC50 of over 1000 nM.
In the case of `COc1ccc(-c2[nH]c3ccccc3c2CCC(=O)N[C@@H]2C(=O)NC[C@H]2O)cc1` [Compound 121], the IC50 is reported as under 250 nM.
For `O=C(CCc1c(-c2ccc(F)cc2)[nH]c2c(Cl)cccc12)N[C@H]1CCNC1=O` [Compound 72], the IC50 was under 250 nM.
`Cc1c(F)c(F)cc2c(CCC(=O)N[C@@H]3C(=O)NC[C@H]3O)c(-c3ccc(F)cc3)[nH]c12` [Compound 98, 3-[5,6-difluoro-2-(4-fluorophenyl)-7-methyl-1H-indol-3-yl]-N-[(3S,4R)-4-hydroxy-2-oxo-pyrrolidin-3-yl]propanamide] was tested, and the IC50 was under 250 nM.
Molecule `O=C(CCc1c(-c2ccccc2)[nH]c2cccc(F)c12)N[C@@H]1C(=O)NC[C@H]1O` [Compound 114, 3-(4-fluoro-2-phenyl-1H-indol-3-yl)-N-[(3S,4R)-4-hydroxy-2-oxo-pyrrolidin-3-yl]propanamide] has an IC50 of 250 to 1000 nM.
Molecule `O=C(CCc1c(-c2ccc(F)cc2)[nH]c2c(F)cc(Cl)cc12)N[C@@H]1C(=O)NC[C@H]1O` [Compound 30] has an IC50 of under 250 nM.
Work on `N#Cc1cc(F)cc2c(CCC(=O)N[C@@H]3C(=O)NC[C@H]3O)c(-c3ccc(F)cc3)[nH]c12` [Compound 42] yielded an IC50 of under 250 nM.
Molecule `CC1(NC(=O)CCc2c(-c3ccc(F)cc3)[nH]c3c(F)cc(F)cc23)CCNC1=O` (racemic) [Compound 14] has an IC50 of under 250 nM.
With `O=C(CCc1c(-c2ccccc2)[nH]c2ccccc12)N[C@@H]1C(=O)NC[C@H]1O` [Compound 86] the IC50 was under 250 nM.
`O=C(CCc1c(-c2ccc(OC(F)(F)F)cc2)[nH]c2ccccc12)N[C@@H]1C(=O)NC[C@H]1O` [Compound 118] was tested, and the IC50 was under 250 nM.
For `O=C(CCc1c(-c2ccccc2)[nH]c2cc(F)c(F)cc12)N[C@@H]1C(=O)NC[C@H]1O` [Compound 82], the IC50 was under 250 nM.
`O=C(CCc1c(-c2ccc(C(F)F)cc2)[nH]c2ccccc12)N[C@@H]1C(=O)NC[C@H]1O` [Compound 131, 3-[2-[4-(difluoromethyl)phenyl]-1H-indol-3-yl]-N-[(3S,4R)-4-hydroxy-2-oxo-pyrrolidin-3-yl]propanamide] gave an IC50 of under 250 nM.
Molecule `N#Cc1ccc(-c2[nH]c3c(F)cc(F)cc3c2CCC(=O)N[C@H]2CCNC2=O)cc1` [Compound 20, 3-[2-(4-cyanophenyl)-5,7-difluoro-1H-indol-3-yl]-N-[(3S)-2-oxopyrrolidin-3-yl]propanamide] has an IC50 of under 250 nM.
`Cc1cc(F)c2[nH]c(-c3ccc(F)cc3)c(CCC(=O)N[C@@H]3C(=O)NC[C@H]3O)c2c1` [Compound 29] gave an IC50 of under 250 nM.
Molecule `O=C(CCc1c(-c2ccccc2)[nH]c2ccc(F)cc12)N[C@H]1CCNC1=O` [Compound 52] has an IC50 of under 250 nM.
`O=C(CCc1c(-c2ccc(F)cc2)[nH]c2ccc(F)cc12)N[C@H]1CCNC1=O` [Compound 47] gave an IC50 of under 250 nM.
Molecule `O=C(CCc1c(-c2ccccc2)[nH]c2c(F)c(F)ccc12)N[C@@H]1C(=O)NC[C@H]1O` [Compound 59] has an IC50 of under 250 nM.
Work on `O=C(CCc1c(-c2ccc(F)cc2)[nH]c2c(Cl)cccc12)N[C@@H]1C(=O)NC[C@H]1O` [Compound 73] yielded an IC50 of under 250 nM.
Work on `Cc1ccc(-c2[nH]c3ccccc3c2CCC(=O)N[C@@H]2C(=O)NC[C@H]2O)cc1` [Compound 124] yielded an IC50 of under 250 nM.
`O=C(CCc1c(-c2ccccc2)[nH]c2ccc(Cl)cc12)N[C@@H]1C(=O)NC[C@H]1O` [Compound 44, 3-(5-chloro-2-phenyl-1H-indol-3-yl)-N-[(3S,4R)-4-hydroxy-2-oxo-pyrrolidin-3-yl]propanamide] showed an IC50 of under 250 nM.
Molecule `O=C(CCc1c(-c2ccccc2)[nH]c2c(F)cccc12)N[C@@H]1C(=O)NC[C@H]1O` [Compound 61] has an IC50 of under 250 nM.
In the case of `O=C(CCc1c(-c2ccc(F)cc2)[nH]c2c(F)cc(F)cc12)N[C@H]1C[C@@H](CO)NC1=O` [Compound 7], the IC50 is reported as over 1000 nM.
Work on `O=C(CCc1c(-c2ccc(F)cc2)[nH]c2c(F)cc(F)cc12)N[C@@H]1CCNC1=O` [Compound 13] yielded an IC50 of under 250 nM.
`O=C(CCc1c(-c2ccc(Cl)c(F)c2)[nH]c2ccccc12)N[C@@H]1C(=O)NC[C@H]1O` [Compound 120] was tested, and the IC50 was under 250 nM.
`Cc1cc(F)cc2c(CCC(=O)N[C@@H]3C(=O)NC[C@H]3O)c(-c3ccc(F)cc3)[nH]c12` [Compound 37] was tested, and the IC50 was under 250 nM.
`O=C(CCc1c(-c2ccc(F)cc2)[nH]c2c(F)ccc(F)c12)N[C@H]1CCNC1=O` [Compound 78] gave an IC50 of over 1000 nM.
`O=C(CCc1c(-c2ccc(F)cc2)[nH]c2ccc(F)cc12)NC1CCNC1=O` (stereo not drawn) [Compound 48] gave an IC50 of under 250 nM.
With `O=C1NC[C@@H](O)[C@@H]1NC(=O)C(F)(F)Cc1c(-c2ccc(F)cc2)[nH]c2c(F)cc(F)cc12` [Compound 95, 3-[5,7-difluoro-2-(4-fluorophenyl)-1H-indol-3-yl]-2,2-difluoro-N-[(3S,4R)-4-hydroxy-2-oxo-pyrrolidin-3-yl]propanamide] the IC50 was under 250 nM.
Molecule `O=C(CCc1c(-c2ccccc2)[nH]c2c(F)c(F)c(F)cc12)N[C@@H]1C(=O)NC[C@H]1O` [Compound 80] has an IC50 of under 250 nM.
With `O=C(CCc1c(-c2ccc(F)cc2)[nH]c2ccc(O)cc12)N[C@H]1CCNC1=O` [Compound 55, 3-[2-(4-fluorophenyl)-5-hydroxy-1H-indol-3-yl]-N-[(3S)-2-oxopyrrolidin-3-yl]propanamide] the IC50 was over 1000 nM.
For `O=C(CCc1c(-c2ccccc2)[nH]c2c(F)cc(F)cc12)N[C@@H]1C(=O)NC[C@H]1O` [Compound 26], the IC50 was under 250 nM.
`N#Cc1cc(F)c2[nH]c(-c3ccc(F)cc3)c(CCC(=O)N[C@H]3CCNC3=O)c2c1` [Compound 28] was tested, and the IC50 was over 1000 nM.
